ChEMBL document CHEMBL1147281, “Antimicrobial and cytotoxic activity of rottlerin-type compounds from Hypericum drummondii” (1989)
Converted amounts (≈) assume the structure as drawn.

Experiments:
Assay type in all cases: functional
Staphylococcus aureus = experiment: Antimicrobial activity against Staphylococcus aureus ATCC 6538 after 24 hrs by twofold serial dilution method; conditions: ATCC 6538, 24 h
[1] = Cytotoxicity against human colon cancer cells after 72 hrs; conditions: Cancer cell lines, read-out: ED50 (the source's name)
Pseudomonas aeruginosa = experiment: Antimicrobial activity against Pseudomonas aeruginosa after 48 hrs by twofold serial dilution method
Bacillus subtilis = experiment: Antimicrobial activity against Bacillus subtilis ATCC 6633 after 24 hrs by twofold serial dilution method; conditions: ATCC 6633, 24 h
[2] = Cytotoxicity against human melanoma cells after 72 hrs; conditions: Melanoma cell, read-out: ED50 (the source's name)
P388 = experiment: Cytotoxicity against mouse P388 cells after 48 hrs; conditions: P388, 48 h, read-out: ED50 (the source's name)
[3] = Cytotoxicity against human lung cancer cells after 72 hrs; conditions: Cancer cell lines, read-out: ED50 (the source's name)
[4] = test system: Mycolicibacterium smegmatis; experiment: Antimicrobial activity against Mycobacterium smegmatis ATCC 607 after 48 hrs by twofold serial dilution method; conditions: ATCC 607, 48 h
KB = experiment: Cytotoxicity against human KB cells after 72 hrs; conditions: read-out: ED50 (the source's name)
Escherichia coli = experiment: Antimicrobial activity against Escherichia coli after 48 hrs by twofold serial dilution method
[5] = Cytotoxicity against human breast cancer cells after 72 hrs; conditions: Cancer cell lines, read-out: ED50 (the source's name)

Compound	MIC (Staphylococcus aureus)	MIC (Pseudomonas aeruginosa)	MIC (Bacillus subtilis)	MIC [4]	MIC (Escherichia coli)	EC50 [1]	EC50 [2]	EC50 (P388)	EC50 [3]	EC50 (KB)	EC50 [5]
CC(=O)C1=C(O)C(C)(C)C(O)=C(Cc2c(O)c3c(c(C(C)=O)c2O)OC(C)(C)C=C3)C1=O [DRUMMONDIN C]	3.12 µg/mL (≈ 7.05 µM)	> 100 µg/mL	0.78 µg/mL (≈ 1.76 µM)	6.25 µg/mL (≈ 14.1 µM)	> 100 µg/mL	11 µg/mL (≈ 24.9 µM)	12 µg/mL (≈ 27.1 µM)	2.8 µg/mL (≈ 6.33 µM)	8.7 µg/mL (≈ 19.7 µM)	8.6 µg/mL (≈ 19.4 µM)	5.1 µg/mL (≈ 11.5 µM)
CCC(=O)C1=C(O)C(C)(C)C(O)=C(CC2=C(O)C(C)(C)C(O)=C(C(=O)CC)C2=O)C1=O	50 µg/mL (≈ 116 µM)	> 100 µg/mL	12.5 µg/mL (≈ 28.9 µM)	50 µg/mL (≈ 116 µM)	> 100 µg/mL	> 50 µg/mL	> 50 µg/mL	> 50 µg/mL	> 50 µg/mL	> 50 µg/mL	> 50 µg/mL
CN[C@@H]1[C@H](O[C@H]2[C@H](O[C@H]3[C@H](O)[C@@H](O)[C@H](N=C(N)N)[C@@H](O)[C@@H]3N=C(N)N)O[C@@H](C)[C@]2(O)C=O)O[C@@H](CO)[C@H](O)[C@H]1O [STREPTOMYCIN]	6.25 µg/mL (≈ 10.7 µM)	–	0.78 µg/mL (≈ 1.34 µM)	3.12 µg/mL (≈ 5.36 µM)	–	–	–	–	–	–	–
CCC(=O)C1=C(O)C(C)(C)C(O)=C(Cc2c(O)c3c(c(C(C)=O)c2O)OC(C)(C)C=C3)C1=O [DRUMMONDIN B]	3.12 µg/mL (≈ 6.83 µM)	> 100 µg/mL	0.39 µg/mL (≈ 0.854 µM)	1.56 µg/mL (≈ 3.42 µM)	> 100 µg/mL	6.3 µg/mL (≈ 13.8 µM)	5 µg/mL (≈ 11 µM)	1.9 µg/mL (≈ 4.16 µM)	7 µg/mL (≈ 15.3 µM)	3.1 µg/mL (≈ 6.79 µM)	–
CC(=O)C1=C(O)C(C)(C)C(O)=C(CC2=C(O)C(C)(C)C(O)=C(C(C)=O)C2=O)C1=O	100 µg/mL (≈ 247 µM)	> 100 µg/mL	50 µg/mL (≈ 124 µM)	100 µg/mL (≈ 247 µM)	> 100 µg/mL	> 50 µg/mL	> 50 µg/mL	> 50 µg/mL	> 50 µg/mL	> 50 µg/mL	> 50 µg/mL

More lines, main results first:

MIC (Staphylococcus aureus)	MIC (Pseudomonas aeruginosa)	MIC (Bacillus subtilis)	MIC [4]	MIC (Escherichia coli)	Compound	EC50 [1]	EC50 [2]	EC50 (P388)	EC50 [3]	EC50 (KB)	EC50 [5]
1.56 µg/mL (≈ 3.32 µM)	> 100 µg/mL	0.78 µg/mL (≈ 1.66 µM)	1.56 µg/mL (≈ 3.32 µM)	> 100 µg/mL	CCC(=O)C1=C(O)C(C)(C)C(O)=C(Cc2c(O)c3c(c(C(=O)CC)c2O)OC(C)(C)C=C3)C1=O [DRUMMONDIN A]	6.6 µg/mL (≈ 14 µM)	8 µg/mL (≈ 17 µM)	2.1 µg/mL (≈ 4.46 µM)	4.5 µg/mL (≈ 9.56 µM)	4.5 µg/mL (≈ 9.56 µM)	3.4 µg/mL (≈ 7.23 µM)
0.78 µg/mL (≈ 1.56 µM)	> 100 µg/mL	0.78 µg/mL (≈ 1.56 µM)	1.56 µg/mL (≈ 3.13 µM)	> 100 µg/mL	CC(=O)C1=C(O)C(C)(CC=C(C)C)C(O)=C(Cc2c(O)c(CC=C(C)C)c(O)c(C(C)=O)c2O)C1=O (stereo not drawn) [DRUMMONDIN F]	42 µg/mL (≈ 84.2 µM)	> 50 µg/mL	21 µg/mL (≈ 42.1 µM)	30 µg/mL (≈ 60.2 µM)	18 µg/mL (≈ 36.1 µM)	21 µg/mL (≈ 42.1 µM)
